Laboratory results: ChEMBL document CHEMBL1201862, “PubChem BioAssay data set” (2004)
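Five compound concentrations were applied to cells in 96-well plates for 48 hours; endpoints were derived by simple linear interpolation of the resulting dose-response curve. At the GI50, growth is halved.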 Activity calls are given as the source filed them. Cut-off read from the data, not from the text of the source: active = GI50 up to about 1.1 µM and inactive = higher.

Key:
Assay in all cases: NCI anticancer screen, dose series, 48 h
Malme-3M = system: Malme-3M
SR = system: SR
HL-60 = system: HL-60
NCI-H23 = system: NCI-H23
PC-3 = system: PC-3
M14 = system: M14
U-251 = system: U-251
BT-549 = system: BT-549
SK-MEL-5 = system: SK-MEL-5
MDA-MB-231 = system: MDA-MB-231
K562 = system: K562
HT-29 = system: HT-29
NCI-H460 = system: NCI-H460
786-0 = system: 786-0
NCI/ADR-RES = system: NCI/ADR-RES
SW-620 = system: SW-620
ACHN = system: ACHN
NCI-H226 = system: NCI-H226
OVCAR-4 = system: OVCAR-4
SN12C = system: SN12C
UO-31 = system: UO-31
RXF 393 = system: RXF 393
EKVX = system: EKVX
HCT-15 = system: HCT-15
SF-268 = system: SF-268
A549 = system: A549
SNB-75 = system: SNB-75
SK-MEL-28 = system: SK-MEL-28
HCT-116 = system: HCT-116
A498 = system: A498
CCRF-CEM = system: CCRF-CEM
TK-10 = system: TK-10
LOX IMVI = system: LOX IMVI
UACC-257 = system: UACC-257
HCC 2998 = system: HCC 2998
DU-145 = system: DU-145
MDA-MB-435 = system: MDA-MB-435
Hs-578T = system: Hs-578T
SF-295 = system: SF-295
HOP-92 = system: HOP-92
RPMI-8226 = system: RPMI-8226
SK-MEL-2 = system: SK-MEL-2
COLO 205 = system: COLO 205
SNB-19 = system: SNB-19
OVCAR-8 = system: OVCAR-8
HOP-62 = system: HOP-62
MDA-N = system: MDA-N
SK-OV-3 = system: SK-OV-3
OVCAR-5 = system: OVCAR-5
CAKI-1 = system: CAKI-1
T47D = system: T47D
OVCAR-3 = system: OVCAR-3
NCI-H522 = system: NCI-H522
SF-539 = system: SF-539
KM12 = system: KM12
MOLT-4 = system: MOLT-4
MCF7 = system: MCF7
UACC-62 = system: UACC-62
IGROV-1 = system: IGROV-1
KM-20L2 = system: KM-20L2

Measured: GI50

Cc1cc2nc3c(C#N)c(C)c(CCCl)c(Cl)n3c2cc1C
active: NCI-H226 0.166 µM
1.87 µM: HCT-15
inactive: Malme-3M 2.96 µM | SR 2.29 µM | HL-60 2.55 µM | NCI-H23 2.12 µM | PC-3 5.6 µM | M14 2.27 µM | U-251 > 43.5 µM | BT-549 2.49 µM | SK-MEL-5 4.39 µM | MDA-MB-231 2 µM | K562 2.39 µM | HT-29 2.46 µM | NCI-H460 5.77 µM | 786-0 2 µM | NCI/ADR-RES 3.18 µM | SW-620 2.34 µM | ACHN 5.3 µM | OVCAR-4 6.76 µM | SN12C 1.92 µM | UO-31 2.02 µM | RXF 393 1.81 µM | EKVX 10.5 µM | SF-268 2.36 µM | A549 7.19 µM | SNB-75 1.87 µM | SK-MEL-28 4.52 µM | HCT-116 1.57 µM | A498 2.92 µM | CCRF-CEM 2.34 µM | TK-10 2.18 µM | LOX IMVI 1.46 µM | UACC-257 2.23 µM | HCC 2998 2.97 µM | DU-145 3.84 µM | MDA-MB-435 2.07 µM | Hs-578T 3.23 µM | SF-295 3.49 µM | HOP-92 2.04 µM | RPMI-8226 2.58 µM | SK-MEL-2 1.87 µM | COLO 205 3.69 µM | SNB-19 10.8 µM | OVCAR-8 2.63 µM | HOP-62 2.44 µM | MDA-N 2.61 µM | SK-OV-3 > 28.6 µM | OVCAR-5 2.18 µM | CAKI-1 2.88 µM | T47D 3.13 µM | OVCAR-3 1.75 µM | NCI-H522 12 µM | SF-539 2.51 µM | KM12 6.1 µM | MOLT-4 2.08 µM | MCF7 2.9 µM | UACC-62 1.93 µM | IGROV-1 2.09 µM

CC(C)SC1CC2C(CC1(C)O)C2(C)C (centres undefined)
inactive: KM-20L2 4.3 µM

COc1ccc2cc(CNCCCCCCCCCCCCNCc3ccc4cc(OC)ccc4c3)ccc2c1
17.6 µM: HCT-15
inactive: Malme-3M 16.6 µM | SR 1.79 µM | HL-60 10.4 µM | NCI-H23 20 µM | PC-3 28.3 µM | M14 17.4 µM | U-251 20.8 µM | BT-549 18.9 µM | SK-MEL-5 22.6 µM | MDA-MB-231 23.5 µM | K562 10.4 µM | HT-29 8.49 µM | NCI-H460 17.3 µM | 786-0 16.5 µM | NCI/ADR-RES 19.5 µM | SW-620 20.7 µM | ACHN 19.6 µM | NCI-H226 18.5 µM | OVCAR-4 16.4 µM | SN12C 19.7 µM | UO-31 20.9 µM | RXF 393 14.8 µM | EKVX 20.3 µM | SF-268 8.04 µM | A549 24.3 µM | SNB-75 13.9 µM | SK-MEL-28 27.7 µM | HCT-116 16.7 µM | A498 18 µM | CCRF-CEM 9.46 µM | TK-10 18.8 µM | LOX IMVI 15 µM | UACC-257 21 µM | HCC 2998 13.5 µM | DU-145 30 µM | MDA-MB-435 25.6 µM | Hs-578T 15.9 µM | SF-295 19.5 µM | HOP-92 21.7 µM | RPMI-8226 12.8 µM | SK-MEL-2 22.5 µM | COLO 205 16.4 µM | SNB-19 17.5 µM | OVCAR-8 15 µM | HOP-62 19.4 µM | MDA-N 21.4 µM | SK-OV-3 18.7 µM | OVCAR-5 28.4 µM | CAKI-1 20.9 µM | T47D 15.8 µM | OVCAR-3 21.2 µM | NCI-H522 18.9 µM | SF-539 17.4 µM | KM12 19.2 µM | MOLT-4 21.5 µM | MCF7 17.1 µM | UACC-62 21.2 µM | IGROV-1 15.8 µM
